In the NIST ThermoML archive (doi:10.1016/j.fluid.2007.09.023):
Numbers after ± are expanded uncertainties.

Experiment: molar heat capacity at constant volume
Settings: Vacuum adiabatic calorimetry

Cc1ccccc1 [toluene]
Fluid (supercritical or subcritical phases)
Settings	molar heat capacity at constant volume [J/K/mol]
386.9 K, Mass density=777.8 kg/m3	147.79 ± 2.9
387.48 K, Mass density=777.8 kg/m3	147.7 ± 2.9
387.84 K, Mass density=777.8 kg/m3	146.41 ± 2.9
388.65 K, Mass density=777.8 kg/m3	146.96 ± 2.9
392.83 K, Mass density=777.8 kg/m3	145.67 ± 2.9
393.6 K, Mass density=777.8 kg/m3	144.01 ± 2.9
399.34 K, Mass density=777.8 kg/m3	146.68 ± 2.9
411.33 K, Mass density=777.8 kg/m3	148.9 ± 2.9
413.55 K, Mass density=777.8 kg/m3	149.08 ± 2.9
545.3 K, Mass density=555.25 kg/m3	189.99 ± 3.8
545.51 K, Mass density=555.25 kg/m3	189.07 ± 3.8
545.84 K, Mass density=555.25 kg/m3	188.79 ± 3.8
545.93 K, Mass density=555.25 kg/m3	189.44 ± 3.8
548.72 K, Mass density=555.25 kg/m3	187.41 ± 3.8
549.32 K, Mass density=555.25 kg/m3	189.25 ± 3.8
550.41 K, Mass density=555.25 kg/m3	188.52 ± 3.8
589.54 K, Mass density=214.64 kg/m3	349.57 ± 7.7
589.66 K, Mass density=214.64 kg/m3	307.47 ± 6.4
589.72 K, Mass density=214.64 kg/m3	299.45 ± 6.2
589.84 K, Mass density=214.64 kg/m3	280.47 ± 6
590.03 K, Mass density=214.64 kg/m3	271.9 ± 5.8
590.09 K, Mass density=214.64 kg/m3	264.9 ± 5.7
590.51 K, Mass density=214.64 kg/m3	250.8 ± 5.2
590.58 K, Mass density=214.64 kg/m3	252.92 ± 5.2

molar heat capacity at constant volume [J/K/mol]
Settings	386.9 K	545.3 K	589.54 K	591.72 K	591.84 K	591.85 K	591.87 K	591.88 K
Gas	–	–	349.57 ± 7	385.6 ± 9.2	425.4 ± 9.9	–	–	–
Liquid	147.79 ± 2.9	189.99 ± 3.8	–	–	–	331.51 ± 6.6	422.18 ± 8.5	442.26 ± 8.8
